According to patent US9714228B2, “Dihydrofuran derivatives as insecticidal compounds” (Syngenta Participations AG, priority 2010, dated 2017):

How the values were obtained:
Assay type in all cases: in vivo
Spodoptera littoralis [1] = experiment: Spodoptera littoralis, sprayed cotton leaf discs, L1 larvae; settings: foliar, 72 h, cotton leaf discs sprayed at 200 ppm, 3 days after treatment
From the text: Spodoptera littoralis (Egyptian Cotton Leafworm): Cotton leaf discs were placed on agar in a 24-well microtiter plate and sprayed with test solutions at an application rate of 200 ppm. After drying, the leaf discs were infested with 5 L1 larvae. The samples were checked for mortality, feeding behavior, and growth regulation 3 days after treatment (DAT).

Diabrotica balteata = experiment: Diabrotica balteata, L2 larvae on treated artificial diet; settings: 120 h, 200 ppm (concentration in well 18 ppm), 5 days incubation
Protocol: (§1) Diabrotica balteata (Corn Root Worm): A 24-well microtiter plate (MTP) with artificial diet was treated with test solutions at an application rate of 200 ppm (concentration in well 18 ppm) by pipetting. After drying, the MTPs were infested with L2 larvae (6-10 per well). After an incubation period of 5 days, samples were checked for larval mortality and growth regulation.

Myzus persicae = Myzus persicae (sachet), mixed population, sucrose solution; settings: 120 h, application rate 12.5 ppm, mortality 5 days after infestation
From the text: Myzus persicae (Sachet) (Green Peach Aphid) Mixed Population Test compounds were applied by pipette into 24 well plates and mixed with Sucrose solution. The plates were closed with a stretched Parafilm. A plastic stencil with 24 holes is placed onto the plate and infested pea seedlings were placed directly on the Parafilm. The infested plate is closed with a gel blotting paper and another plastic stencil and then turned upside down. 5 days after infestation the samples were checked on mortality. Application rate: 12.5 ppm.

Tetranychus urticae = experiment: Tetranychus urticae, sprayed bean leaf discs; settings: foliar, 192 h, bean leaf discs sprayed at 200 ppm, mixed ages, checked 8 days later
From the text: Tetranychus urticae (Two-Spotted Spider Mite): Bean leaf discs on agar in 24-well microtiter plates were sprayed with test solutions at an application rate of 200 ppm. After drying, the leaf discs are infested with mite populations of mixed ages. 8 days later, discs are checked for egg mortality, larval mortality, and adult mortality.

Heliothis virescens = experiment: Heliothis virescens, eggs on treated artificial diet; settings: 96 h, 200 ppm (concentration in well 18 ppm), 4 days incubation
Protocol: Heliothis virescens (Tobacco Budworm): Eggs (0-24 h old) were placed in 24-well microtiter plate on artificial diet and treated with test solutions at an application rate of 200 ppm (concentration in well 18 ppm) by pipetting. After an incubation period of 4 days, samples were checked for egg mortality, larval mortality, and growth regulation.

Thrips tabaci = experiment: Thrips tabaci, sprayed sunflower leaf discs; settings: foliar, 168 h, sunflower leaf discs sprayed at 200 ppm, mixed ages, mortality after 7 days
Protocol: Thrips tabaci (Onion Thrips): Sunflower leaf discs were placed on agar in a 24-well microtiter plate and sprayed with test solutions at an application rate of 200 ppm. After drying, the leaf discs were infested with an […] population of mixed ages. After an incubation period of 7 days, samples were checked for mortality.

Plutella xylostella = experiment: Plutella xylostella, L2 larvae on treated artificial diet; settings: 144 h, 200 ppm (concentration in well 18 ppm), 6 days incubation
Protocol: as §1, with “Plutella xylostella (Diamond Back Moth):” for “Diabrotica balteata (Corn Root Worm): A”, “(7-12” for “(6-10”, “6” for “5”

Spodoptera littoralis [2] = experiment: Spodoptera littoralis (systemic), salad grown on treated agar, eggs; settings: 120 h, application rate 12.5 ppm, checked 5 days after infestation (mortality, repellent effect, feeding behavior, growth regulation)
From the text: Spodoptera littoralis (Systemic) (Egyptian Cotton Leaf Worm) Test compounds were applied by pipette into 24 well plates and mixed with agar. Salad seeds were placed on the agar and the multi well plate is closed by another plate which contains also agar. After 7 days the roots have absorbed the compound and the salad has grown into the lid plate. The salad leafs were now cut off into the lid plate. Spodoptera eggs were pipette through a plastic stencil on a humid gel blotting paper and the plate closed with it. The samples are checked for mortality, repellent effect, feeding behavior, and growth regulation 5 days after infestation. Application rate: 12.5 ppm

Cc1cc(C2=COC(c3cc(Cl)cc(Cl)c3)(C(F)(F)F)C2)ccc1C(=O)NCc1ccccn1 (centres unmarked) [Compound D15]
≥ 80%: pest or weed control at 200 ppm (Spodoptera littoralis [1]) | pest or weed control at 200 ppm (Diabrotica balteata) | pest or weed control at 12.5 ppm (Myzus persicae) | pest or weed control at 200 ppm (Tetranychus urticae) | pest or weed control at 200 ppm (Heliothis virescens) | pest or weed control at 200 ppm (Thrips tabaci) | pest or weed control at 200 ppm (Plutella xylostella) | pest or weed control at 12.5 ppm (Spodoptera littoralis [2])

Cc1cc(C2=COC(c3cc(Cl)cc(Cl)c3)(C(F)(F)F)C2)ccc1C(=O)NC1C[S+]([O-])C1 (centres unmarked) [Compound D20]
≥ 80%: pest or weed control at 200 ppm (Spodoptera littoralis [1]) | pest or weed control at 200 ppm (Diabrotica balteata) | pest or weed control at 12.5 ppm (Myzus persicae) | pest or weed control at 200 ppm (Tetranychus urticae) | pest or weed control at 200 ppm (Heliothis virescens) | pest or weed control at 200 ppm (Thrips tabaci) | pest or weed control at 200 ppm (Plutella xylostella) | pest or weed control at 12.5 ppm (Spodoptera littoralis [2])

Cc1cc(C2=COC(c3cc(Cl)cc(Cl)c3)(C(F)(F)F)C2)ccc1C(=O)NC1CSC1 (centres unmarked) [Compound D21]
≥ 80%: pest or weed control at 200 ppm (Spodoptera littoralis [1]) | pest or weed control at 200 ppm (Diabrotica balteata) | pest or weed control at 12.5 ppm (Myzus persicae) | pest or weed control at 200 ppm (Tetranychus urticae) | pest or weed control at 200 ppm (Heliothis virescens) | pest or weed control at 200 ppm (Thrips tabaci) | pest or weed control at 200 ppm (Plutella xylostella) | pest or weed control at 12.5 ppm (Spodoptera littoralis [2])

Cc1cc(C2=COC(c3cc(Cl)cc(Cl)c3)(C(F)(F)F)C2)ccc1C(=O)NC1CS(=O)(=O)C1 (centres unmarked) [Compound D24, 4-[5-(3,5-Dichloro-phenyl)-5-trifluoromethyl-4,5-dihydro-furan-3-yl]-N-(1,1-dioxo-1lambda*6*-thietan-3-yl)-2-methyl-benzamide]
≥ 80%: pest or weed control at 200 ppm (Spodoptera littoralis [1]) | pest or weed control at 200 ppm (Diabrotica balteata) | pest or weed control at 12.5 ppm (Myzus persicae) | pest or weed control at 200 ppm (Tetranychus urticae) | pest or weed control at 200 ppm (Heliothis virescens) | pest or weed control at 200 ppm (Thrips tabaci) | pest or weed control at 200 ppm (Plutella xylostella) | pest or weed control at 12.5 ppm (Spodoptera littoralis [2])
